Experimental data published in PMC3459870, “Hit-to-Lead Development of the Chamigrane Endoperoxide Merulin A for the Treatment of African Sleeping Sickness” (PLoS ONE, 2012).
pIC50: −log10 of the molar value. Like-named read-outs stand apart in the source and are kept apart here.

Key:
[1] = tested on: Trypanosoma brucei brucei strain 427–221; experiment: Trypanosome screening assay (CellTiter-Glo ATP bioluminescence, 48 h); assay type: cell-based; settings: for pIC50: Trypanosoma brucei
Protocol: Trypanosoma brucei brucei strain 427–221 were grown at 37°C, 5% CO2 in HMI-9 medium containing 10% Fetal Bovine Serum, 10% Serum Plus (JRH Inc., Lenexa, KS,USA) and penicillin/streptomycin.
T.b.b. 427–221 were diluted to 2.10^4 per ml in complete HMI-9 medium and aliquoted in Greiner sterile 384-well flat white opaque culture plates using a WellMate cell dispenser from Matrix Tech. (Hudson, NH, USA). Test compounds were serially diluted in dimethyl sulfoxide (DMSO) and added to the assay plates with the robotic dispenser Biomek FXp liquid handler (Beckman Coulter). Thimerosal (2 µM final concentration) was added as a positive control and DMSO as a negative control (1% final concentration). Trypanosomes were incubated with compounds for 48 hours at 37°C with 5% CO2 before monitoring cell viability as previously described. Briefly, trypanosomes were lysed in the wells by adding 25 µL of CellTiter-GloTM (Promega). The lysed trypanosomes were placed on an orbital shaker at room temperature for 2 minutes. After lysis, the resulting ATP-bioluminescence was measured at room temperature using an Analyst HT plate reader (Molecular Devices). Percentage inhibition of parasite growth was calculated for each well as [1−(RLUx−RLU+)/(RLU−−RLU+)]*100 where RLUx, RLU+ and RLU− are respectively the Relative Light Units for each well, positive (thimerosal) and negative (DMSO) controls. A screening window coefficient, denoted Z′ factor, was used to evaluate the performance of the assay. The Z′ factor, calculated as 1−(3σc++3σc−)/(μc+−μc−) where σc+, σc−, μc+ and μc− are respectively the standard deviation and mean values of positive and negative controls, is reflective of the assay signal dynamic range and the data variation associated with signal measurement. IC50's were calculated using Prism (GraphPad).

T98-G cells = experiment: Glioblastoma toxicity screening assay (nuclei count by imaging, 17 h); assay type: cell-based; settings: Homo sapiens, T98G; Figure 4
Protocol: (§1) T98-G cells (ATTC number: CRL-1690) were plated at a density of 2,000 cells per well into two 384 well clear bottom plates (Costar 3712) in DMEM with 10% FBS. After 24 hours incubation at 37°C with 5% CO2 the cells were pinned with 200 nL of a two-fold serial dilution of merulin analogues. After 17 hours of treatment at 37°C in 5% CO2 the plates were fixed with 4% formaldehyde and washed with PBS (BioTek ELx405). After 10 minutes in PBS with 0.5% TritonX-100 each plate was washed and blocked with 2% Bovine Serum Albumin in PBS. Nuclei were stained with Hoechst 33342 then washed and placed in 40 µL of PBS with 0.1% sodium azide. Plates were imaged using the ImageXpress Micro epifluorescent scope (Molecular Devices). MetaXpress software was used to quantify total number of cells and IC50s were calculated using Prism (GraphPad).

HeLa cells = experiment: HeLa toxicity screening assay (nuclei count by imaging, 17 h); assay type: cell-based, human; settings: Homo sapiens, HeLa; Figure 4
Protocol: as §1, with “HeLa” for “T98-G”, “cells” for “cells (ATTC number: CRL-1690)”

[2] = text and Figures 1, 3, bloodstream form, read-out: IC50 against T. brucei brucei
[3] = Figure 4, bloodstream form, read-out: T.b.b IC50

Compound | pIC50 (T98-G cells) | pIC50 (HeLa cells) | pIC50 [1, 3] | also measured
NCCCC(N)(C(=O)O)C(F)F (stereo not shown) [Eflornithine, reference compound] |  |  |  | pIC50 ([1]; Table 3, read-out: T.b.b IC50): 4.23
CC1(C)CCC(=O)C2(C)OOC3CC12CCC3(O)CO (stereo not shown) [Merulin B (6), Merulin B] |  |  |  | pIC50 ([1]; Table 3, read-out: T.b.b IC50): 5.10
CC1(C)C=CC(=O)[C@@]2(C)OO[C@@H]3C[C@]12CCC3(O)CO (stereo partly shown) [Merulin C (7), Merulin C] |  |  |  | pIC50 ([1]; Table 3, read-out: T.b.b IC50): 6.10
N=C(N)c1ccc(OCCCCCOc2ccc(C(=N)N)cc2)cc1 [Pentamidine, reference compound] |  |  |  | pIC50 ([1]; Table 3, read-out: T.b.b IC50): 7.52
Cc1ccc(C(=O)Nc2ccc(S(=O)(=O)O)c3cc(S(=O)(=O)O)cc(S(=O)(=O)O)c23)cc1NC(=O)c1cccc(NC(=O)Nc2cccc(C(=O)Nc3cc(C(=O)Nc4ccc(S(=O)(=O)O)c5cc(S(=O)(=O)O)cc(S(=O)(=O)O)c45)ccc3C)c2)c1 [Suramin, reference compound] |  |  |  | pIC50 ([1]; Table 3, read-out: T.b.b IC50): 8.15
CC1(C)CC[C@@H](O)[C@@]2(C)OO[C@H]3C[C@@]12CC[C@H]3O [compound 8, (3S,4R,6aS,10R,10aS)-7,7,10a-trimethyloctahydro-3H-3,6a-methanobenzo[c][1,2]dioxocine-4,10-diol] |  |  |  | pIC50 [1, 2]: < 4.30
CC1(C)CCC(=O)[C@@](C)(O)[C@]12CC[C@@H](O)[C@@H](O)C2 [compound 9, (1S,6S,8S,9R)-1,8,9-trihydroxy-1,5,5-trimethylspiro[5.5]undecan-2-one] |  |  |  | pIC50 [1, 2]: < 4.30; activity against T. brucei brucei in words ([1]; initial SAR series): complete loss of activity
CC(=O)O[C@@H]1CC[C@@]23C[C@@H]1OO[C@]2(C)C(=O)CCC3(C)C [compound 10, (3S,4R,6aS,10aS)-7,7,10a-trimethyl-10-oxooctahydro-3H-3,6a-methanobenzo[c][1,2]dioxocin-4-yl acetate] |  |  |  | pIC50 [1, 2]: 4.85
CC(C)(C)C(=O)O[C@@H]1CC[C@@]23C[C@@H]1OO[C@]2(C)C(=O)CCC3(C)C [compound 11, (3S,4R,6aS,10aS)-7,7,10a-trimethyl-10-oxooctahydro-3H-3,6a-methanobenzo[c][1,2]dioxocin-4-yl pivalate] |  |  |  | pIC50 [1, 2]: 5.10
CC1(C)CCC(=O)[C@@]2(C)OO[C@H]3C[C@@]12CC[C@H]3OC(=O)C1COc2ccccc2O1 (stereo partly drawn) [compound 12, (3S,4R,6aS,10aS)-7,7,10a-trimethyl-10-oxooctahydro-3H-3,6a-methanobenzo[c][1,2]dioxocin-4-yl 2,3-dihydrobenzo[b][1,4]dioxine-2-carboxylate] | < 4.30 | < 4.30 |  | pIC50 ([1]; Table 3, read-out: T.b.b IC50): 7.22
CC1(C)CCC(=O)[C@@]2(C)OO[C@H]3C[C@@]12CC[C@H]3OC(=O)c1ccc2c(c1)OCCO2 [compound 13, (3S,4R,6aS,10aS)-7,7,10a-trimethyl-10-oxooctahydro-3H-3,6a-methanobenzo[c][1,2]dioxocin-4-yl 2,3-dihydrobenzo[b][1,4]dioxine-6-carboxylate] | < 4.30 | 4.55 | 6.59 | 
CC1(C)CCC(=O)[C@@]2(C)OO[C@H]3C[C@@]12CC[C@H]3OC(=O)c1cc2ccccc2oc1=O [compound 14, (3S,4R,6aS,10aS)-7,7,10a-trimethyl-10-oxooctahydro-3H-3,6a-methanobenzo[c][1,2]dioxocin-4-yl 2-oxo-2H-chromene-3-carboxylate] | < 4.30 | < 4.30 | 6.38 | 
CC1(C)CCC(=O)[C@@]2(C)OO[C@H]3C[C@@]12CC[C@H]3OC(=O)c1cccc(-c2ccccc2)c1 [compound 15, (3S,4R,6aS,10aS)-7,7,10a-trimethyl-10-oxooctahydro-3H-3,6a-methanobenzo[c][1,2]dioxocin-4-yl [1,1′-biphenyl]-3-carboxylate] | < 4.30 | < 4.30 | 6.62 | 
CC1(C)CCC(=O)[C@@]2(C)OO[C@H]3C[C@@]12CC[C@H]3OC(=O)c1ccc(C2CCCCC2)cc1 [compound 16, (3S,4R,6aS,10aS)-7,7,10a-trimethyl-10-oxooctahydro-3H-3,6a-methanobenzo[c][1,2]dioxocin-4-yl 4-cyclohexylbenzoate] | < 4.30 | 4.89 | 6.96 | 
CC1(C)CCC(=O)[C@@]2(C)OO[C@H]3C[C@@]12CC[C@H]3OC(=O)Cc1cccc2ccccc12 [compound 17, (3S,4R,6aS,10aS)-7,7,10a-trimethyl-10-oxooctahydro-3H-3,6a-methanobenzo[c][1,2]dioxocin-4-yl 2-(naphthalen-1-yl)acetate] | < 4.30 | 4.89 |  | pIC50 ([1]; bloodstream form, read-out: IC50 against T. brucei): 7.37
Cc1ncc(C(=O)O[C@@H]2CC[C@@]34C[C@@H]2OO[C@]3(C)C(=O)CCC4(C)C)s1 [compound 18, (3S,4R,6aS,10aS)-7,7,10a-trimethyl-10-oxooctahydro-3H-3,6a-methanobenzo[c][1,2]dioxocin-4-yl 2-methylthiazole-5-carboxylate] | < 4.30 | < 4.30 | 6.15 | 
CC1(C)CCC(=O)[C@@]2(C)OO[C@H]3C[C@@]12CC[C@H]3OC(=O)c1cnc(Br)s1 [compound 19, (3S,4R,6aS,10aS)-7,7,10a-trimethyl-10-oxooctahydro-3H-3,6a-methanobenzo[c][1,2]dioxocin-4-yl 2-bromothiazole-5-carboxylate] | < 4.30 | 4.89 | 6.18 | 
CC1(C)CCC(=O)[C@@]2(C)OO[C@H]3C[C@@]12CC[C@H]3OC(=O)c1ccsc1 [compound 20, (3S,4R,6aS,10aS)-7,7,10a-trimethyl-10-oxooctahydro-3H-3,6a-methanobenzo[c][1,2]dioxocin-4-yl thiophene-3-carboxylate] | < 4.30 | 4.80 | 6.48 | 
CC1(C)CCC(=O)[C@@]2(C)OO[C@H]3C[C@@]12CC[C@H]3OC(=O)c1cc(Cl)sc1Cl [compound 21, (3S,4R,6aS,10aS)-7,7,10a-trimethyl-10-oxooctahydro-3H-3,6a-methanobenzo[c][1,2]dioxocin-4-yl 2,5-dichlorothiophene-3-carboxylate] | < 4.30 | 4.68 | 6.27 | 
CC1(C)CCC(=O)[C@@]2(C)OO[C@H]3C[C@@]12CC[C@H]3OC(=O)c1cc(-c2ccccc2)no1 [compound 22, (3S,4R,6aS,10aS)-7,7,10a-trimethyl-10-oxooctahydro-3H-3,6a-methanobenzo[c][1,2]dioxocin-4-yl 3-phenylisoxazole-5-carboxylate] | 4.70 | < 4.30 | 6.72 | 
CC1(C)CCC(=O)[C@@]2(C)OO[C@H]3C[C@@]12CC[C@H]3OC(=O)c1ccno1 [compound 23, (3S,4R,6aS,10aS)-7,7,10a-trimethyl-10-oxooctahydro-3H-3,6a-methanobenzo[c][1,2]dioxocin-4-yl isoxazole-5-carboxylate] | < 4.30 | < 4.30 | 5.74 | 
CC1(C)CCC(=O)[C@@]2(C)OO[C@H]3C[C@@]12CC[C@H]3OC(=O)c1ccc(N2CCOCC2)cc1 [compound 24, (3S,4R,6aS,10aS)-7,7,10a-trimethyl-10-oxooctahydro-3H-3,6a-methanobenzo[c][1,2]dioxocin-4-yl 4-morpholinobenzoate] | < 4.30 | 4.92 | 6.57 | 
CC1(C)CCC(=O)[C@@]2(C)OO[C@H]3C[C@@]12CC[C@H]3OC(=O)c1ccncc1 [compound 25, (3S,4R,6aS,10aS)-7,7,10a-trimethyl-10-oxooctahydro-3H-3,6a-methanobenzo[c][1,2]dioxocin-4-yl isonicotinate] | < 4.30 | < 4.30 | 6.02 | 
